# Reference: patent US20190391160A1 (INSTITUT PASTEUR, published 2019)
# “Also recorded” adds a separate entry of the source.
# B1: recombinant human non-pancreatic secreted phospholipase A2 group IIA (enzyme, UniProt P14555 21-144, looked up)
# chain: NLVNFHRMIKLTTGKEAALSYGFYGCHCGVGGRGSPKDATDRCCVTHDCCYKRLEKRGCGTKFLSYKFSNSGSRITCAKQDSCRSQLCECDKAAATCFARNKTTYNKKYQYYSNKHCRGSTPRC
# How the values were obtained:
# [1] = molecular target: CFTR (WT-CFTR) Cl− channel (Homo sapiens, UniProt P13569); assay type: cell-based
# [2] = test system: cAMP-dependent Cl− short-circuit current of mouse colon tissue; conditions: 100 μM bumetanide, basolateral side
# Experimental: Mice were 32 to 38 weeks old and weighed 23 to 36 g. Pups were weaned at 21 days and fed solid mouse chow (Teklad 2018S, Harland). All mice were allowed food and water ad libitum until the time of sacrifice by cervical dislocation. Colons were dissected, cut in 4 pieces from rectum to lower intestine. The fragments from colon were introduced immediately into Ussing chambers for subsequent short-circuit experiments.
# Transepithelial transport measurements were performed as described previously^33 in the short-circuit mode (6 mice and 17 tissus). […] The excised colon were stripped of external muscle layers and mounted in Ussing chambers (0.018 cm^2 aperture). Hemichambers were connected to a DVC-1000 voltage clamp (World Precision Instruments, Inc., Sarasota, Fla.) via Ag/AgCl electrodes and 3 M KCl agar bridges for recording of short-circuit current. Currents were stored on a computer using analog-to-digital converter (PowerLab) and LabChart software 5.0. Prior to the experiment, prostaglandin generation was blocked with 10 μM indomethacin on the apical and basolateral sides (incubation of tissue for 30 min before the beginning of the experiment). Transepithelial Isc was calculated as μEq cm^−2 tissue surface area. The apical and basolateral solutions contained (in mM): 116 NaCl, 25 NaHCO3, 1.2 CaCl2, 1.2 MgCl2, 2,4 […], 0,4 KH2PO4, 10 glucose and was gassed with 95% O2-5% CO2 (pH 7.4).
# [3] = molecular target: ΔF508-CFTR (Homo sapiens, UniProt P13569, DEL508-508); assay type: cell-based; conditions: after corrector and CB; inh172 and glibenclamide as a mixture
# [4] = molecular target: CFTR channels (WT-CFTR) (Homo sapiens, UniProt P13569); assay type: cell-based; conditions: 100 μM glibenclamide and 10 μM inh172
# Description: HeLa cells stably transfected with WT-CFTR were kindly provided by Pascale Fanen (INSERM U955, Créteil, France). The intracellular side of the membrane patch was exposed to a solution containing (in mM): 150 N-methyl-D-gluconate chloride (NMDG-Cl), 0.5 MgCl2, 2 EGTA, 10 HEPES, 10 glucose, pH 7.4, adjusted to pH 7.4 with NMDG. The patch pipettes were filled with (in mM): 150 NMDG-Cl, 0.5 MgCl2, 2 EGTA, 10 HEPES, 10 glucose, 1 ATP-Mg adjusted to pH 7.4 with NMDG. CFTR channels were activated by addition of 40 nM PKA+1 mM ATP-Mg at the intracellular side of the patches. The presence of CFTR channels was verified by addition of 100 μM glibenclamide and 10 μM inh172. The effect of CB was tested by perfusion of 1 nM of CB in the intracellular solution in the presence of 40 nM PKA+0.05, 0.5, or 1 mM ATP-Mg. The currents were recorded as previously described^34. […] Currents were recorded with Bio-logic RK 400 patch-clamp amplifiers (Bio-Logic, Claix, France), monitored using PClamp9 software (Axon Instruments, Foster City, Calif., USA) and stored on a computer. […] We calculated channel activity (NPo) as <I>/i, where <I> is the time-averaged current passing through the channels on the patch with the closed current level as reference and i is the unit current amplitude.
# [5] = test system: Cl— channel current
# [6] = molecular target: ΔF508-NBD1 of CFTR (Homo sapiens, UniProt P13569, DEL508-508); assay type: binding
# [7] = molecular target: human ΔF508-NBD1 (NBD1 domain of CFTR with deletion of Phe508) (human, UniProt P13569 389-678)
# [8] = molecular target: recombinant, purified human NBD1 (nucleotide binding domain 1) of CFTR, wild type (human, UniProt P13569 389-678)
# recombinant, purified human NBD1 (nucleotide binding domain 1) of CFTR, wild type, sequence (P13569 389-678 limits assumed): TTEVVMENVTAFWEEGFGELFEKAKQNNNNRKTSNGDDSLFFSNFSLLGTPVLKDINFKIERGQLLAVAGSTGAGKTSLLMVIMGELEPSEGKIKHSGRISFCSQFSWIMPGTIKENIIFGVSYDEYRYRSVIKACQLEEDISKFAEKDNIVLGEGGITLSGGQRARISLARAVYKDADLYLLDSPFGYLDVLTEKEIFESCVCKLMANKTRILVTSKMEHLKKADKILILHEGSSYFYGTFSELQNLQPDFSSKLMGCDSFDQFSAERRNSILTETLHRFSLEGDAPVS
# human ΔF508-NBD1 (NBD1 domain of CFTR with deletion of Phe508), sequence (P13569 other isoform, or with tags, fused parts or gaps mutant limits assumed): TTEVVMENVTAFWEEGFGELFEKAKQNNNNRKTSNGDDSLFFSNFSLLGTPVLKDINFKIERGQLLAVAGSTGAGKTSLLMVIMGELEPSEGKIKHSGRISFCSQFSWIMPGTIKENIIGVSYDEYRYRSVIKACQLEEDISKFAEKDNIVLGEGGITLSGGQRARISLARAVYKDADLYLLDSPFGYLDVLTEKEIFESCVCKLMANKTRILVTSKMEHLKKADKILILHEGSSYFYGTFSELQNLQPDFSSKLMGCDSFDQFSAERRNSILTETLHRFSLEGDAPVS
# ΔF508-CFTR, sequence (P13569 with tags, fused parts or gaps DEL508-508): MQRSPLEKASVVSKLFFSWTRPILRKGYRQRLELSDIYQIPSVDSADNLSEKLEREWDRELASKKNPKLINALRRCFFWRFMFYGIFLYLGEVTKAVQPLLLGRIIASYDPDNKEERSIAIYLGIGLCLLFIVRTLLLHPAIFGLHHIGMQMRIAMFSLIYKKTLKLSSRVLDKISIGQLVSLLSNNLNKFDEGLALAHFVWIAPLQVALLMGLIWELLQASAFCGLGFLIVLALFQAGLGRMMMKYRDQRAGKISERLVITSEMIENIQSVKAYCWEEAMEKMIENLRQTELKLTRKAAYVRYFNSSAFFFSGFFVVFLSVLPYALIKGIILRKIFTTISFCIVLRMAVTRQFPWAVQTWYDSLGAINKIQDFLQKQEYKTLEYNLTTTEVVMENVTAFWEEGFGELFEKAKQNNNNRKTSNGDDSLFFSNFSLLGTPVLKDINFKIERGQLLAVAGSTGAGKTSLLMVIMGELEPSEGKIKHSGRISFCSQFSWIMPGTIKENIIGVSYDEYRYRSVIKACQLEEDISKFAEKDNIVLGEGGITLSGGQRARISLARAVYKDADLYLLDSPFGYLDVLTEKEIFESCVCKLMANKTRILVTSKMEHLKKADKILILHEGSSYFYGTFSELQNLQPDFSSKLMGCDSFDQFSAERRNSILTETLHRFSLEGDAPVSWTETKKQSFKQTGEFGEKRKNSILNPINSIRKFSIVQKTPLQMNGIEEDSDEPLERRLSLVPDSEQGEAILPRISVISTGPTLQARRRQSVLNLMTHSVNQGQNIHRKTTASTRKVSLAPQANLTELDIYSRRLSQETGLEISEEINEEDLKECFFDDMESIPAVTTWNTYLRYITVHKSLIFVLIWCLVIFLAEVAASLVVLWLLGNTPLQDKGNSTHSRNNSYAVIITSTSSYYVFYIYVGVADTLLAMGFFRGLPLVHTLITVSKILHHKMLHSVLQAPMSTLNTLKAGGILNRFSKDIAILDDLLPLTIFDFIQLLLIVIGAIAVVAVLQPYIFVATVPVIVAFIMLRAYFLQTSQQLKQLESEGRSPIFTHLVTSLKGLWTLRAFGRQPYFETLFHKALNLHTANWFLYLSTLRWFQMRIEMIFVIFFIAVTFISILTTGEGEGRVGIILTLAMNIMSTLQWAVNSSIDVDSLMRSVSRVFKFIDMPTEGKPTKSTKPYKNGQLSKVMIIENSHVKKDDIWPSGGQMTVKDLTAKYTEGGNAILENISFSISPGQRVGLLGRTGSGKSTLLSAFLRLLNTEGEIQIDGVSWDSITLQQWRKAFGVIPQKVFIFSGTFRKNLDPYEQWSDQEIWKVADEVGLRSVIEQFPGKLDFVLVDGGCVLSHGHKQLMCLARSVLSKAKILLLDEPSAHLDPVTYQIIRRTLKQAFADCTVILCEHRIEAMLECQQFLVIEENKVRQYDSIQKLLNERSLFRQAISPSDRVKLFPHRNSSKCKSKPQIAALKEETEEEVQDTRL
# ΔF508-NBD1 of CFTR, sequence (P13569 with tags, fused parts or gaps DEL508-508 limits assumed): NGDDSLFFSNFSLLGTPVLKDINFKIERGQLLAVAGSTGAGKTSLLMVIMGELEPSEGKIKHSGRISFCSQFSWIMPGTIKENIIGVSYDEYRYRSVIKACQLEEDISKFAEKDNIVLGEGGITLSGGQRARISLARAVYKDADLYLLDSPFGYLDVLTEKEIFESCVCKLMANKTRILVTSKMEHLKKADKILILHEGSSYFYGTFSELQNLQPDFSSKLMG
# CFTR (WT-CFTR) Cl− channel, sequence (P13569 whole entry): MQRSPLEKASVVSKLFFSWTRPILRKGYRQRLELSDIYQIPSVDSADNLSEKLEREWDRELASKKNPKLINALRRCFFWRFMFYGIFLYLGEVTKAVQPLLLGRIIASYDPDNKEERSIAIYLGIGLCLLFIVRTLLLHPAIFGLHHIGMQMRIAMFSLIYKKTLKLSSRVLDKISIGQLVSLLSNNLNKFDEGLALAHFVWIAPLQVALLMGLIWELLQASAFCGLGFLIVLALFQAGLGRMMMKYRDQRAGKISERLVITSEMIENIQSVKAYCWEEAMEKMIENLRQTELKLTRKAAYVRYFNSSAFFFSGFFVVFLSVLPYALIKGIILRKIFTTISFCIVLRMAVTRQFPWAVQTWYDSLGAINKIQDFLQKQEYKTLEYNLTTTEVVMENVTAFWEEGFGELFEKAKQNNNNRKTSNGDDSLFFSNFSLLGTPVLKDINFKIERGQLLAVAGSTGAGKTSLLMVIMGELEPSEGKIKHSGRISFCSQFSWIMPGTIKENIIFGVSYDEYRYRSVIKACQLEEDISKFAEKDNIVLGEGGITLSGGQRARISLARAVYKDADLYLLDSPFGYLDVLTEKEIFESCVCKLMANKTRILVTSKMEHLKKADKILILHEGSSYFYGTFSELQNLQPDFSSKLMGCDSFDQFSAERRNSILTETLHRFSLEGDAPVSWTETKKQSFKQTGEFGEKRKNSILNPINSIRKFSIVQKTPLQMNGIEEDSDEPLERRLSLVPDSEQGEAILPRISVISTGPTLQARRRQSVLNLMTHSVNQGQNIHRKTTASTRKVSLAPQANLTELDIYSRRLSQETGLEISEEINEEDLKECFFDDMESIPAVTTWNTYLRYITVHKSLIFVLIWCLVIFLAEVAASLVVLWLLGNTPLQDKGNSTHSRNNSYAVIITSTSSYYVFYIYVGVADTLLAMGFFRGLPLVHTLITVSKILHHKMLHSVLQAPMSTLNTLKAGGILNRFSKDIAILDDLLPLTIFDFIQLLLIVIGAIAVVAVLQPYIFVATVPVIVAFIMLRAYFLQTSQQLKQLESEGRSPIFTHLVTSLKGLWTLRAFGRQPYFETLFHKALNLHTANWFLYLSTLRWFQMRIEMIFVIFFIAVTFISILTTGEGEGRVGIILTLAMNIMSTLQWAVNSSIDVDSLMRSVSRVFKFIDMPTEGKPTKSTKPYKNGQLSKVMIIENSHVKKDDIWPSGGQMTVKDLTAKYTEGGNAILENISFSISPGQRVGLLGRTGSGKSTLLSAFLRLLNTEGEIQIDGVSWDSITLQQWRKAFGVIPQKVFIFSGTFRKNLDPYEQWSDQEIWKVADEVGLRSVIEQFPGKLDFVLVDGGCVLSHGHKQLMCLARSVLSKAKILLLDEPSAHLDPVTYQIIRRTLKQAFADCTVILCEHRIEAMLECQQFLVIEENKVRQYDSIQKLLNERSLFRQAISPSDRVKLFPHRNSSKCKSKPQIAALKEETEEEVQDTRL
# CFTR channels (WT-CFTR), sequence (P13569 whole entry, the tested form may be a part): as the sequence (P13569 whole entry) above
molecule,measurement,setting,value
CCCCC/C=C\C/C=C\C/C=C\C/C=C\CCCC(=O)O [arachidonic acid],effect on IcAMP (CFTR-Cl− current),[1],no effect on IcAMP
CCCCNc1cc(C(=O)O)cc(S(N)(=O)=O)c1Oc1ccccc1 [bumetanide],inhibition of the CB-induced Isc increase,[2],inhibited
COc1ccc(Cl)cc1C(=O)NCCc1ccc(S(=O)(=O)NC(=O)NC2CCCCC2)cc1 [glibenclamide],inhibition of the CB-potentiated current,[3],only slightly
same,inhibition of the activated channels,[4],inhibited
NAVPFYAFYGCYCGWGGQ,Cl− channel current,[5],increased; also recorded: increases Cl— channel current
same,binding of peptide to mutated NBD1,[6],has shown interaction; also recorded: interacts with ΔF508-NBD1
glyH101,inhibition of the CB-potentiated current,[3],inhibited
B1,Kd,[7],37 nM
same,koff,[7],0.0066 s⁻¹
same,kon,[7],180000 M⁻¹ s⁻¹
same,Kd,[8],35 nM
same,koff,[8],0.0021 s⁻¹
same,kon,[8],59000 M⁻¹ s⁻¹
